Data as given in patent US7951405B2 (priority 2004, dated 2011).
“Also recorded” adds a separate entry of the source. Read-outs that look alike come from different tables or passages of the source.

How the values were obtained:
A549 NSCLC xenograft = assay type: in vivo
Method: Mice were implanted with A549 NSCLC cells. […] Tumor size was measured 3 times per week. Values are means, n=10.
(§1) H460a cells (provided by Dr Jack Roth, MD, Anderson) were grown in Dulbecco's Modified Eagle Media (DMEM) supplemented with 10% Foetal Bovine Serum (FBS). A549 cells (American Type Culture Collection [Manassas, Va.] were grown in Roswell Park Memorial Institute medium (RPMI) 1640+10% FBS. The cell concentrations for implant were 1×10^7 cells/0.2 mL for H460a and 7.5×10^6 cells/0.2 mL for A549.
(§2) Cells were suspended in phosphate-buffered saline, and implanted subcutaneously in the right flank of each mouse. Once palpable tumours were established, animals were randomised so that all groups had similar starting mean tumour volumes of 100-150 mm^3. Tumour measurements and mouse weights were taken three times per week. Animals were individually monitored throughout the experiment.
All groups were treated daily for 3 weeks.
All groups were treated every 6 days for 3 weeks (a total of three injections).
(§3) Weight loss was calculated as percent change in mean group body weight, using the formula: ((W−W0)/W0)×100 • where ‘W’ represents mean body weight of the treated group at a particular day, and ‘W0’ represents mean body weight of the same group at start of treatment. Maximum weight loss was also calculated using the above formula, giving the maximum percentage of body weight lost at any time in the entire experiment for a particular group. Treatment efficacy was assessed by tumor growth inhibition. Tumour volumes of treated groups were given as percentages of tumor volumes of the control groups (% T/C), using the formula: 100×((T−T0)/(C−C0)) • where ‘T’ represents mean tumor volume of a treated group on a specific day during the experiment, ‘T0’ represented mean tumor volume of the same group on the first day of treatment, C represents mean tumor volume of a control group on a particular day of the experiment, and C0 represents mean tumor volume of the same group on the first day of treatment.
(§4) Tumor growth inhibition was calculated using the formula: 100−% T/C
(§5) Tumor volume (mm^3) was calculated using the ellipsoid formula: (Dx(d^2))/2 • where ‘D’ represents the large diameter of the tumor, and ‘d’ represents the small diameter. In some cases, tumor regression and/or percentage change in tumor volume was calculated using the formula: ((T−T0)/T0)×100 • where ‘T’ represents mean tumor volume of the treated group at a particular day, and ‘T0’ represents mean tumor volume of the same treated group at the start of treatment.

[1] = Pathology/necropsy and tumor immunohistochemistry in treated xenograft mice
Excerpt: At necropsy, skin samples were fixed in 10% buffered formalin, embedded in paraffin, sectioned at 5μ and stained with haematoxylin and eosin.
Five mice per treatment from all remaining groups were given a full necropsy at the end of the study.
Tumor samples were fixed by immersion in 10% zinc formalin then processed in a Tissue-Tek® VIP (Sakura) and embedded in paraffin. Sections for immunohistochemistry were cut at 5μ. Pre-immune rabbit or goat serum (Dako Ltd) was used as the negative control. Sections were immersed in Target Retrieval Solution (Dako Ltd) and heated to 94° C. in a steamer (Black & Decker) for 20 minutes. Endogenous peroxidase activity was quenched with 6% H2O2 in methanol for 15 minutes.
For platelet endothelial cell adhesion molecule (PECAM-1, CD31) antigen and EGFR antigen, the sections were incubated overnight at room temperature with a polyclonal goat anti-PECAM-1 IgG (Santa Cruz Biotechnology, Santa Cruz, Calif.) diluted 1:800 in Antibody Diluent (Dako Ltd) or with a polyclonal rabbit anti-EGFR IgG (BioGenex, San Ramon, Calif.) diluted 1:50 in Antibody Diluent (Dako Ltd). Sections were incubated with Vectastain Elite ABC-peroxidase (Vector Laboratories) for 45 minutes at room temperature.
To detect apoptosis, the TUNEL TdT-FragEL™ DNA fragmentation detection kit (Oncogene Research Products, San Diego, Calif.) was used according to the manufacturer's recommendations. For all four antigens, Vector Nova Red (Vector Laboratories) was the final chromogen and haematoxylin the nuclear counterstain.

[2] = assay type: in vivo
Method: FIG. […]
as §3

[3] = Chronic-dose plasma and tumor concentrations of erlotinib in tumor-bearing mice; assay type: in vivo, nu/nu athymic mice
Method: On day 28 post tumor implant, blood (from the retro-orbital sinus) and tumor samples were collected at 1 and 6 hours post dosing. […] Values are means±SD, n=3.
(§6) For single-dose pharmacokinetics (PK), blood samples from three mice per time point were collected by cardiac puncture at 5, 15, 30, 60 minutes and 2, 4, 8, 16, 24 hours post-dose. For chronically treated animals, blood samples from two or three mice per time point were collected via the retro-orbital sinus at 1 and 6 hours. Collection tubes contained ethylene diamine tetra-acetic acid (EDTA) as anticoagulant. Samples were stored at −70° C. […] PK parameters were estimated by non-compartmental analysis of the composite data, using the PK evaluation programme WinNonlin PRO® version 3.1 (Pharsight Inc).

[4] = Single-dose pharmacokinetics of erlotinib in non-tumor bearing mice; assay type: in vivo, female nu/nu athymic mice
Method: as §6
Three animals per time point were evaluated for PK data (FIG. 3).

H460a NSCLC xenograft = experiment: Tumor growth inhibition in H460a NSCLC xenograft model; assay type: in vivo, athymic nude mice
Method: (§7) Mice were implanted with H460a NSCLC cells. […] Tumor size was measured 3 times per week. Values are means, n=10.
as §7, §1, §2
All groups were treated daily for 3 weeks. […]
Weight loss was calculated as percent change in mean group body weight, using the formula: ((W−W0)/W0)×100 • where ‘W’ represents mean body weight of the treated group at a particular day, and ‘W0’ represents mean body weight of the same group at start of treatment. Maximum weight loss was also calculated using the above formula, giving the maximum percentage of body weight lost at any time in the entire experiment for a particular group. Treatment efficacy was assessed by tumor growth inhibition. […]
as §4, §5

[5] = cited from earlier work
[6] = erlotinib monotherapy, treated xenografts

Which results are given for `C#Cc1cccc(Nc2ncnc3cc(OCCOC)c(OCCOC)cc23)c1` [erlotinib, [6,7-bis(2-methoxyethoxy)-4-quinazolin-4-yl]-(3-ethynylphenyl) amine]?
Tumor growth inhibition (A549 NSCLC xenograft; erlotinib 25 mg/kg, day 47 post tumor implantation): 25%; Extent of partial regression (A549 NSCLC xenograft; erlotinib 100 mg/kg): 2%; Number of partial regressions (A549 NSCLC xenograft; erlotinib 100 mg/kg): one; Tumor growth inhibition (A549 NSCLC xenograft; erlotinib 100 mg/kg, day 47 post tumor implantation): 93%; Ki-67 proliferative index in tumor ([1]; erlotinib 1000 mg/kg (so in the source), both NSCLC xenograft tumor models): mild decrease; Haematology and clinical chemistry parameters ([1]; erlotinib monotherapy): no changes; Skin lesions (macroscopic) ([1]; erlotinib monotherapy (100 mg/kg/day for 21 days), transient): substantial reddening and crusting of the skin of the muzzle; also recorded: reddened and flaky; Angiogenesis, microvascular density (MVD) via CD31 staining [1, 6]: no clear effect; Frequency of apoptosis in tumor cells (TUNEL) [1, 6]: no significant difference; Tolerability ([2]; erlotinib 150 mg/kg for 3 weeks, previous efficacy studies (unpublished observation)): well tolerated; Toxicity outcome ([2]; erlotinib 200 mg/kg group): marked weight loss and all were euthanized; Toxicity outcome ([2]; erlotinib 400 mg/kg group): One mouse in the 400 mg/kg group died; Correlation of tumor concentrations with plasma concentrations ([3]; H460a tumor-bearing mice): correlated well; Dose dependence of exposure ([3]; ascending oral doses 6.3-150.0 mg/kg, tumor-bearing mice): dose-dependent and more than dose-proportional; Time of maximum plasma concentration post dose ([4]; 20 and 100 mg/kg single dose by gavage): 0.5 to 1.0 h; Dose proportionality of exposure (AUC) ([4]; 20 vs 100 mg/kg single dose): dose-proportional; Mean maximum plasma concentration ([4]; erlotinib 20 mg/kg single dose by gavage): ~9,100 ng/mL; Mean maximum plasma concentration ([4]; erlotinib 100 mg/kg single dose by gavage): approximately 24,000 ng/mL; Tumor regressions (H460a NSCLC xenograft; erlotinib monotherapy dose response study): no partial or complete regressions

With `N.N.[Cl][Pt][Cl]` [cisplatin] as the compound, how does the Tumor growth inhibition (A549 NSCLC xenograft; cisplatin 1.5 mg/kg, non-significant) read?
Its Tumor growth inhibition is 30%.

And the “Extent of partial regression” value (A549 NSCLC xenograft; cisplatin 6 mg/kg)?
The value was 2%.

What about the “Number of partial regressions” value (A549 NSCLC xenograft; cisplatin 6 mg/kg) of the same compound?
Its value is “one”.

And the Tumor growth inhibition (A549 NSCLC xenograft; cisplatin 6 mg/kg, day 47 post tumor implantation)?
The Tumor growth inhibition was 88%.

What about the “Primary microscopic kidney lesions” value ([1]; cisplatin alone and in combination, severity dose dependent) of the same compound?
Its value is “tubular necrosis and tubular basophilia”.

And the MTD ([2]; cisplatin every 6 days x3 i.p., athymic nude mice)?
Its MTD is 6 mg/kg.

What about the MTD ([5]; cisplatin every 4 days x3 i.v. in nude mice (Riccardi 2001)) of the same compound?
Its MTD is 4 mg/kg.

What about the MTD ([5]; cisplatin every 6 days x2 i.v. in nude mice (Perez-Soler 2001)) of the same compound?
Its MTD is 4 mg/kg.

And the MTD ([5]; cisplatin every 6 days x3 i.p. in C57/B16 mice (van Moorsel 1999))?
Its MTD is 6 mg/kg.

And the Tumor growth inhibition (H460a NSCLC xenograft; cisplatin 1.5 mg/kg i.p. every 6 days)?
The Tumor growth inhibition was 42%.

And the Tumor growth inhibition (H460a NSCLC xenograft; cisplatin 6 mg/kg i.p. every 6 days)?
Its Tumor growth inhibition is 81%.
